In ChEMBL document CHEMBL1201862, “PubChem BioAssay data set” (2004):
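Where inhibition never reached the appropriate level, the endpoint shown equals the highest concentration tested. Otherwise, values were interpolated linearly from a five-concentration, 48-hour dose response in 96-well plates. GI50 = concentration required for 50% inhibition of growth.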 Calls of active or inactive are those of the source. Rule as the data show it: active = GI50 up to about 1.1 µM and inactive = higher.

Legend:
Assay in all cases: NCI-60 cell line screen, 48 h
[1] = system: M14
[2] = system: HCT-116
[3] = system: OVCAR-5
[4] = system: HT-29
[5] = system: Malme-3M
[6] = system: SNB-75
[7] = system: UACC-62
[8] = system: HL-60
[9] = system: SK-OV-3
[10] = system: NCI-H23
[11] = system: RPMI-8226
[12] = system: SK-MEL-2
[13] = system: UACC-257
[14] = system: SNB-19
[15] = system: CCRF-CEM
[16] = system: SF-268
[17] = system: SK-MEL-28
[18] = system: TK-10
[19] = system: K562
[20] = system: SN12C

Row | SMILES | GI50 [1] | GI50 [2] | GI50 [3] | GI50 [4] | GI50 [5] | GI50 [6] | GI50 [7] | GI50 [8] | GI50 [9] | GI50 [10] | GI50 [11] | GI50 [12] | GI50 [13] | GI50 [14] | GI50 [15] | GI50 [16] | GI50 [17] | GI50 [18] | GI50 [19] | GI50 [20]
1 | Nc1ccc(C2NC(=O)Cc3c2ccc2ccccc32)cc1 (stereo not given) | 89.9 µM (inactive) | 81.1 µM (inactive) | > 100 µM (inactive) | > 100 µM (inactive) | 47 µM (inactive) | > 100 µM (inactive) | 66.1 µM (inactive) | 35.2 µM (inactive) | > 100 µM (inactive) | > 100 µM (inactive) | > 100 µM (inactive) | > 100 µM (inactive) | > 100 µM (inactive) | > 100 µM (inactive) | 80 µM (inactive) | 89.5 µM (inactive) | > 100 µM (inactive) | > 100 µM (inactive) | > 100 µM (inactive) | –
2 | Cc1nn(C(=O)c2ccccc2O)c2c1C(c1ccccc1O)SC(=N)N2 (stereo not given) | 4.54 µM (inactive) | 4.12 µM (inactive) | 6.32 µM (inactive) | > 10 µM (inactive) | > 10 µM (inactive) | 4.06 µM (inactive) | 3.08 µM (inactive) | 2.22 µM (inactive) | 5.02 µM (inactive) | 2.94 µM (inactive) | 3.34 µM (inactive) | 4.65 µM (inactive) | 1.5 µM (inactive) | – | 3.1 µM (inactive) | 6.81 µM (inactive) | > 10 µM (inactive) | 1.69 µM (inactive) | 3.24 µM (inactive) | 4.82 µM (inactive)
3 | C/C(Cl)=N\OC(=O)Nc1ccccc1C(F)(F)F | – | 33.4 µM (inactive) | 42.6 µM (inactive) | 18.9 µM (inactive) | 20.9 µM (inactive) | 20.9 µM (inactive) | – | 3.5 µM (inactive) | > 100 µM (inactive) | > 100 µM (inactive) | 21 µM (inactive) | > 100 µM (inactive) | > 100 µM (inactive) | > 100 µM (inactive) | 21.1 µM (inactive) | > 100 µM (inactive) | 17.8 µM (inactive) | 15.4 µM (inactive) | 19 µM (inactive) | > 100 µM (inactive)
4 | COc1ccc(/C(Cl)=C(\C=O)c2ccc(Cl)c(Cl)c2)cc1 | 13.7 µM (inactive) | 3.83 µM (inactive) | – | 4.37 µM (inactive) | 16.1 µM (inactive) | 3.04 µM (inactive) | 8.2 µM (inactive) | 4.12 µM (inactive) | 30.6 µM (inactive) | 4.4 µM (inactive) | 2.56 µM (inactive) | 3.52 µM (inactive) | – | 16.2 µM (inactive) | 2.96 µM (inactive) | 5.3 µM (inactive) | 14.4 µM (inactive) | 18 µM (inactive) | 4.04 µM (inactive) | 7.1 µM (inactive)
5 | COc1ccc(C(C2=C(O)COC2=O)c2cc3c(cc2O)OCO3)cc1OC (stereo not given) | > 100 µM (inactive) | > 100 µM (inactive) | > 100 µM (inactive) | > 100 µM (inactive) | > 100 µM (inactive) | > 100 µM (inactive) | > 100 µM (inactive) | > 100 µM (inactive) | > 100 µM (inactive) | – | > 100 µM (inactive) | > 100 µM (inactive) | > 100 µM (inactive) | > 100 µM (inactive) | > 100 µM (inactive) | > 100 µM (inactive) | > 100 µM (inactive) | > 100 µM (inactive) | > 100 µM (inactive) | > 100 µM (inactive)
6 | O=c1cc(-c2ccccc2)nc2[nH]ccn12 | > 10 µM (inactive) | > 10 µM (inactive) | > 10 µM (inactive) | > 10 µM (inactive) | > 10 µM (inactive) | 6.25 µM (inactive) | > 10 µM (inactive) | > 10 µM (inactive) | > 10 µM (inactive) | > 10 µM (inactive) | > 10 µM (inactive) | > 10 µM (inactive) | – | > 10 µM (inactive) | > 10 µM (inactive) | > 10 µM (inactive) | > 10 µM (inactive) | > 10 µM (inactive) | > 10 µM (inactive) | > 10 µM (inactive)
7 | CCOC(=O)CNC(=O)C(C)NC(=O)C(NC(=O)CC(c1ncc[nH]1)c1ncc[nH]1)C(C)CC (stereo not given) | 84.9 µM (inactive) | > 100 µM (inactive) | > 100 µM (inactive) | – | > 100 µM (inactive) | > 100 µM (inactive) | > 100 µM (inactive) | > 100 µM (inactive) | > 100 µM (inactive) | > 100 µM (inactive) | > 100 µM (inactive) | > 100 µM (inactive) | > 100 µM (inactive) | > 100 µM (inactive) | > 100 µM (inactive) | > 100 µM (inactive) | > 100 µM (inactive) | > 100 µM (inactive) | > 100 µM (inactive) | > 100 µM (inactive)
8 | O=C1c2cc3c(cc2CC12Cc1cc4c(cc1C2)CCC4)CCC3 | > 100 µM (inactive) | > 100 µM (inactive) | > 100 µM (inactive) | 93.8 µM (inactive) | > 100 µM (inactive) | > 100 µM (inactive) | – | 59.6 µM (inactive) | > 100 µM (inactive) | > 100 µM (inactive) | > 100 µM (inactive) | > 100 µM (inactive) | > 100 µM (inactive) | > 100 µM (inactive) | > 100 µM (inactive) | > 100 µM (inactive) | > 100 µM (inactive) | > 100 µM (inactive) | 27 µM (inactive) | > 100 µM (inactive)
9 | CC(=O)NC1CC2Oc3ccc(C)cc3C(C)(O2)C1O (stereo not given) | > 100 µM (inactive) | > 100 µM (inactive) | – | > 100 µM (inactive) | > 100 µM (inactive) | > 100 µM (inactive) | > 100 µM (inactive) | > 100 µM (inactive) | > 100 µM (inactive) | > 100 µM (inactive) | > 100 µM (inactive) | > 100 µM (inactive) | > 100 µM (inactive) | > 100 µM (inactive) | > 100 µM (inactive) | – | > 100 µM (inactive) | > 100 µM (inactive) | > 100 µM (inactive) | > 100 µM (inactive)
10 | Cc1cc2c(cc1C(=O)CCC(=O)O)CC1(C2)Cc2cc(C)c(C(=O)CCC(=O)O)cc2C1 | > 100 µM (inactive) | > 100 µM (inactive) | > 100 µM (inactive) | > 100 µM (inactive) | > 100 µM (inactive) | 90.6 µM (inactive) | – | > 100 µM (inactive) | > 100 µM (inactive) | > 100 µM (inactive) | > 100 µM (inactive) | > 100 µM (inactive) | > 100 µM (inactive) | > 100 µM (inactive) | > 100 µM (inactive) | > 100 µM (inactive) | > 100 µM (inactive) | > 100 µM (inactive) | > 100 µM (inactive) | > 100 µM (inactive)
11 | CCCCS(=O)(=O)Nc1ccc(Nc2c3ccccc3nc3ccccc23)c(OC)c1 | – | 1.73 µM (inactive) | 13.7 µM (inactive) | 1.67 µM (inactive) | 2.21 µM (inactive) | 1.52 µM (inactive) | 1.78 µM (inactive) | 0.183 µM (active) | 5.07 µM (inactive) | 1.11 µM (active) | 1.74 µM (inactive) | 16.9 µM (inactive) | 6 µM (inactive) | 1.94 µM (inactive) | 0.338 µM (active) | 2.25 µM (inactive) | 5.74 µM (inactive) | – | 2.51 µM (inactive) | 0.828 µM (active)
